# Experimental data reported in ChEMBL document CHEMBL1154048, “Design, synthesis and pharmacological evaluation of new 1-[3-(4-arylpiperazin-1-yl)-2-hydroxy-propyl]-3,3-diphenylpyrrolidin-2-one derivatives with antiarrhythmic, antihypertensive, and alpha-adrenolytic activity” (Eur J Med Chem, 2009).
# Tests used:
# Type in all cases: functional, Artery
# Rattus norvegicus [1] = experiment: Hypotensive activity in normotensive Wistar rat assessed as systolic blood pressure at 5 mg/kg, iv after 20 mins (Rvb=138 +/- 0.9 mmHg)
# Rattus norvegicus [2] = experiment: Hypotensive activity in normotensive Wistar rat assessed as systolic blood pressure at 5 mg/kg, iv after 20 mins (Rvb=142.5 +/- 3.6 mmHg)
# Rattus norvegicus [3] = experiment: Hypotensive activity in normotensive Wistar rat assessed as diastolic blood pressure at 5 mg/kg, iv after 5 mins (Rvb=127 +/- 8.1 mmHg)
# Rattus norvegicus [4] = experiment: Hypotensive activity in normotensive Wistar rat assessed as diastolic blood pressure at 5 mg/kg, iv after 5 mins (Rvb=125.5 +/- 0.6 mmHg)
smiles,measurement,setting,value
Cl.Cl.O=C1N(CC(O)CN2CCN(c3ccccc3C(F)(F)F)CC2)CCC1(c1ccccc1)c1ccccc1 (centres undefined),Activity,Rattus norvegicus [1],119 mmHg
CCOc1ccccc1N1CCN(CC(O)CN2CCC(c3ccccc3)(c3ccccc3)C2=O)CC1.Cl.Cl (centres undefined),Activity,Rattus norvegicus [2],111 mmHg
same,Activity,Rattus norvegicus [3],117 mmHg
Cl.Cl.O=C1N(CC(O)CN2CCN(c3ccccc3)CC2)CCC1(c1ccccc1)c1ccccc1 (centres undefined),Activity,Rattus norvegicus [4],119 mmHg
